Laboratory results from patent US20040127472A1, “Use of anecortave acetate for the protection of visual acuity in patients with age related macular degeneration” (priority 2002, published 2004).

Experiments:
[1] = target: matrix metalloproteinase-3 (Homo sapiens, UniProt P08254); details: cited from earlier work
[2] = Preclinical drug levels after slow-release depot adjacent to the posterior scleral surface; format: in vivo; details: data not shown
[3] = test system: plasminogen activator inhibitor 1; details: cited from earlier work
[4] = target: urokinase-like plasminogen activator (Homo sapiens, UniProt P00749); details: cited from earlier work
glucocorticoid receptor = target: T1, glucocorticoid receptor (Homo sapiens, UniProt P04150); details: preclinical data (refs 8,9); cited from earlier work
T1 sequence (P04150 1-777): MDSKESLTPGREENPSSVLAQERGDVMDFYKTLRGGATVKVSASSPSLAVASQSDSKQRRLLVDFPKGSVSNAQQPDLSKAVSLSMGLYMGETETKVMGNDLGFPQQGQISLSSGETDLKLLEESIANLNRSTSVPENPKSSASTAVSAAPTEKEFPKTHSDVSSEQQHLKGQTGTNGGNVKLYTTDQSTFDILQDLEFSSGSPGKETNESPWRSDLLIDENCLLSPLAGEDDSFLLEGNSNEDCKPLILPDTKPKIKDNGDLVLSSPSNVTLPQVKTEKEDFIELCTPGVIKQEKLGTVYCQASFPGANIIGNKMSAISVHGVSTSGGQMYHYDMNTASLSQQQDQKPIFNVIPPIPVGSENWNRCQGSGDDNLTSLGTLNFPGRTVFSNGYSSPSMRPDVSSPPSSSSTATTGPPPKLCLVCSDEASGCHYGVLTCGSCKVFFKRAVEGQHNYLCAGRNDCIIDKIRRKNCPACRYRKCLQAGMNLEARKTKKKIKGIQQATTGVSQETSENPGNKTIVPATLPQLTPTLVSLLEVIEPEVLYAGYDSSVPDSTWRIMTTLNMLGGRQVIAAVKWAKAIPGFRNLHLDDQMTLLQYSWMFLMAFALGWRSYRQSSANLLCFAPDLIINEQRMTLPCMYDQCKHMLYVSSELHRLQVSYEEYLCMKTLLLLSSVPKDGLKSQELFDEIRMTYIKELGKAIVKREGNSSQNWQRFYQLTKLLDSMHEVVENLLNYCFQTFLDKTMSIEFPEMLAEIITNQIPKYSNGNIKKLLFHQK

[5] = Clinical trial, safety evaluation (ophthalmic and physical examinations, blood and urine); format: in vivo, patients
Text: (§1) Clinical efficacy data is being obtained from evaluations of best-corrected logMAR visual acuity and standardized fluorescein angiograms. Clinical safety data obtained from general physical examinations, laboratory evaluations of blood and urine, and complete ophthalmic examinations, including indocyanine green angiography, continue to be periodically evaluated by the Independent Safety Committee overseeing this study. Clinical data from evaluations for safety and efficacy performed at Day 1-2, Week 2, Week 6, Month 3, and Month 6 following patient randomization and treatment are reported here.
Following completion of the Month 6 visit by all patients, the accumulated safety data were evaluated by the Independent Safety Committee overseeing this study. […] The most common ocular changes reported were changes in lens opacity using the Lens Opacity Classification System (LOCS) II, and included reports of nuclear color, nuclear opalescence, cortical, and posterior subcapsular changes. Cataracts are a common intercurrent disorder in this patient population, and the changes seen were documented in all treatment groups and in contralateral (untreated) eyes. The cataractous changes reported were described as mild and typically unrelated to treatment. The second most common ocular change, a decrease in vision (defined as a decrease of ≧4 logMAR lines from the previous visit), is also a common problem in this patient population. These vision decreases occurred in all treatment groups and in the contralateral eye. Other ocular changes (occurring with a frequency greater than 5%) were ptosis, ocular pain, subconjunctival hemorrhage, ocular pruritis, ocular burning/stinging, pupil disorders, foreign body sensation, ocular hyperemia, and abnormal vision. These changes were reported in all four treatment groups, in both treated eyes and contralateral eyes, were characterized as primarily mild, were generally not attributed to treatment, and were transient in nature. The single report of an IOP increase (≧10 mmHg) from Baseline occurred in a patient treated with anecortave acetate 30 mg and was attributed to intercurrent illness. Of the ocular changes reported, those most frequently attributed to study treatment were ptosis, ocular pain, subconjunctival hemorrhage, ocular pruritis, and ocular burning/stinging. These treatment-related events were mostly mild, transient, and seen within all four treatment groups.
The most common non-ocular changes from Baseline reported for this study were hypertension, peripheral edema, depression, and arthritis, none of which were attributed to treatment.

[6] = test system: subfoveal CNV lesion secondary to AMD; experiment: Clinical trial, CNV lesion surface areas from standardized fluorescein angiograms (DARC); format: in vivo, patients; details: for inhibition of lesion growth versus placebo: Month 6
Text: (§2) This ongoing trial was initiated to compare the clinical efficacy of anecortave acetate versus placebo treatment for preservation (maintenance) of vision and inhibition of CNV lesion growth. Patients with a logMAR visual acuity of 0.3 (20/40 Snellen equivalent) to 1.2 (20/320 Snellen equivalent) and primary or recurrent subfoveal choroidal neovascularization (CNV) secondary to AMD with a lesion up to 30.48mm^2 (12 disc areas) in size were enrolled. At Baseline and follow-up visits, best-corrected logMAR visual acuity was obtained on all patients using guidelines previously established for the Early Treatment Diabetic Retinopathy Study. Patient lesion eligibility for this study was determined from standardized fluorescein angiograms at the Digital Angiography Reading Center (DARC) by certified Readers (trained retina specialists) prior to enrollment and treatment. The DARC also evaluated changes from Baseline in the fluorescein angiographic characteristics of the lesions in masked fashion. Each data point represents the average of at least two independent evaluations by DARC Readers. Because all angiographic data for this study is being collected using the same fimdus camera and digital camera systems and stored as uncompressed digital images, the actual lesion surface areas can be more closely approximated in mm^2 rather than requiring the disc area “best-fit” estimates previously used for film angiographic data.
as §1
The primary efficacy outcome for this ongoing study is the mean change from Baseline in best-corrected logMAR visual acuity. Secondary efficacy outcomes are: the percentage of patients with preservation or maintenance of vision (defined as loss of less than three logMAR lines [less than 15 logMAR letters] of visual acuity); the percentage of patients with clinically significant worsening of vision (defined as a loss of at least three logMAR lines [at least 15 logMAR letters] of visual acuity); the percentage of patients with severe vision loss (defined as a loss of at least six logMAR lines [at least 30 logMAR letters] of visual acuity); and changes in CNV lesion characteristics (defined as total lesion area, total CNV and total classic CNV).
All efficacy analyses were based on the intent-to-treat principle. All patients received the medication to which they were assigned, and were analyzed accordingly. Last-observation-carry-forward was used to impute missing values. Baseline comparisons were tested using analysis of variance (for continuous outcomes) and Pearson's chi square (for binary outcomes). Changes from baseline in visual acuity and lesion parameters were tested in a repeated measures analysis of variance model with appropriate contrasts for the 6-month comparisons. Comparisons of binary outcomes at Month 6 were evaluated using Pearson's chi-square tests. All analyses of ocular outcomes are based on changes in the study (i.e., treated) eye.

[7] = test system: patients with subfoveal choroidal neovascularization (CNV) secondary to AMD; experiment: Clinical trial, best-corrected logMAR visual acuity after a single posterior juxtascleral administration; format: in vivo; details: for LogMAR Change 1 Line Improved, % of patients / LogMAR Change 1 Line Worsened, % of patients / LogMAR Change 2 Lines Worsened, % of patients / LogMAR Change No Change, % of patients / LogMAR Change ≧2 Lines Improved, % of patients / LogMAR Change ≧3 Lines Worsened (clinically significant vision loss), % of patients: Month 6 vs Baseline
Text: as §2
The 128 patients in this double-masked, dose-response study were enrolled and treated between April 1999 and May 2001 by 18 participating sites in the US and EU. Prior to treatment, patients were enrolled and equally randomized to anecortave acetate sterile suspension for injection 30 mg (N=33), 15 mg (N=33), or 3 mg (N=32) or to placebo (vehicle, N=30). Masking of the clinical sites as to treatment group is being maintained in two ways. Study medication is masked by placing the treatment kits including study medication and supplies for the posterior juxtascleral administration in sealed opaque boxes identified by patient number only. The boxes were numbered sequentially at each clinical site and patients were assigned the next available sequential number upon enrollment. The randomization was built into the sequential numbering of the treatment kits and blocked within each site to maintain equal distribution across treatment assignments. Masking as to treatment group is also being maintained at each site by having an unmasked injecting investigator perform the treatments and a masked examining investigator perform the subsequent evaluations. Upon enrollment of each patient, anecortave acetate or placebo was administered behind the eye as a 0.5 mL posterior juxtascleral injection onto the outer surface of the sclera near the macula using a specially designed cannula. The cannula is described in commonly owned U.S. Pat. No. 6,413,245B1.
as §1
The primary efficacy outcome for this ongoing study is the mean change from Baseline in best-corrected logMAR visual acuity. […]

[8] = 3 mg single administration, n = 32
[9] = 15 mg single administration, n = 33
[10] = 15 mg single administration, n = 33, listed as Anec Acet
[11] = 30 mg single administration, n = 33

matrix metalloproteinase-3, sequence (P08254 100-477, species assumed): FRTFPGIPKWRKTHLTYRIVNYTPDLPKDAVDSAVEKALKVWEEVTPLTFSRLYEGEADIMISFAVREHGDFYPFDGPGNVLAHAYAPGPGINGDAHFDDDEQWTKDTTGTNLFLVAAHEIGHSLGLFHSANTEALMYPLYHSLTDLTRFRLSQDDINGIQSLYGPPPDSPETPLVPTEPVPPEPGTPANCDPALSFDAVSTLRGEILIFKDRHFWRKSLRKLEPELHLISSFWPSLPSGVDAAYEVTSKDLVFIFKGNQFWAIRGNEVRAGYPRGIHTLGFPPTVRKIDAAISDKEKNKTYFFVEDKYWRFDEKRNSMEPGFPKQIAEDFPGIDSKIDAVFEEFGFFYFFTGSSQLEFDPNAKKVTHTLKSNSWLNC

- duration of therapeutic drug levels in the adjacent choroid and retina [2]: up to 6 months
Compound: CC(=O)OCC(=O)[C@@]1(O)CC[C@H]2[C@@H]3CCC4=CC(=O)CC[C@]4(C)C3=CC[C@@]21C [anecortave acetate, 4,9(11)-pregnadien-17α,21-diol-3,20 dione-21 acetate]
- effect on matrix metalloproteinase-3 [1]: inhibits
- effect on plasminogen activator inhibitor 1 [3]: upregulates
- effect on urokinase-like plasminogen activator [4]: inhibits
- corticosteroid activity (glucocorticoid receptor): no measurable corticosteroid activity
- reports of IOP increase (≧10 mmHg) from Baseline ([5]; 30 mg, attributed to intercurrent illness): single report
- changes in blood chemistry, hematology, or urinalysis ([5]; all doses, 6 months): No treatment-related changes
- safety evaluation by the Independent Safety Committee ([5]; all doses, after Month 6 visit): no clinically relevant medication-related or administration-related safety concerns were identified
- ocular corticosteroid side effects (elevated intraocular pressure or accelerated cataract progression) ([5]; clinical study, at least 6 months exposure): no clinical evidence of ocular corticosteroid side effects
- inhibition of lesion growth versus placebo ([6]; 3 mg): trend favoring
- inhibition of total CNV surface area growth, percent change from Baseline, versus placebo ([6]; 15 mg, Month 6, p=0.0001): statistically superior to placebo treatment
- inhibition of total lesion surface area growth, percent change from Baseline, versus placebo ([6]; 15 mg, Month 6, p=0.0005): statistically superior to placebo treatment
- inhibition of total classic CNV surface area growth, percent change from Baseline, versus placebo ([6]; 15 mg, Month 6, p=0.0008): statistically superior to placebo treatment
- inhibition of lesion growth versus placebo ([6]; 30 mg): trend favoring
- LogMAR Change 1 Line Improved, % of patients [7, 8]: 0%
- LogMAR Change 1 Line Worsened, % of patients [7, 8]: 12.5%
- LogMAR Change 2 Lines Worsened, % of patients [7, 8]: 18.8%
- LogMAR Change No Change, % of patients [7, 8]: 37.5%
- LogMAR Change ≧2 Lines Improved, % of patients [7, 8]: 6%
- LogMAR Change ≧3 Lines Worsened (clinically significant vision loss), % of patients [7, 8]: 25.0%
- LogMAR Change ≧2 Lines Improved, % of patients ([7]; 3 mg single administration, n = 32, listed as Anec Acet): 6.3%
- <6 Lines Worse, % of patients ([7]; 3 mg, Month 6): 78.13%
- Severe Vision Loss, ≧6 Lines Worse, % of patients ([7]; 3 mg, Month 6): 21.88%
- mean change at Month 6 from Baseline in logMAR visual acuity, versus placebo ([7]; 3 mg, statistical significance not achieved): Trends also favor treatment
- average final logMAR value ([7]; 15 mg single administration, Month 6 (20/125 Snellen equivalent; Baseline 0.73)): 0.81 logMAR
- LogMAR Change 1 Line Improved, % of patients [7, 9]: 3.0%
- LogMAR Change 1 Line Worsened, % of patients [7, 9]: 12.1%
- LogMAR Change 2 Lines Worsened, % of patients [7, 9]: 30.3%
- LogMAR Change No Change, % of patients [7, 9]: 24.2%
- LogMAR Change ≧2 Lines Improved, % of patients [7, 9]: 18%
- LogMAR Change ≧3 Lines Worsened (clinically significant vision loss), % of patients [7, 9]: 12%
- LogMAR Change ≧2 Lines Improved, % of patients [7, 10]: 18.2%
- LogMAR Change ≧3 Lines Worsened (clinically significant vision loss), % of patients [7, 10]: 12.1%
- mean change from Baseline logMAR visual acuity ([7]; 15 mg single treatment, Month 6): +0.08 logMAR score
- <6 Lines Worse, % of patients ([7]; 15 mg, Month 6): 96.97%
- Severe Vision Loss, ≧6 Lines Worse, % of patients ([7]; 15 mg, Month 6): 3.03%
- percentage of patients with preservation of vision (decrease of less than three logMAR lines from Baseline) ([7]; 15 mg, Month 6, overall analysis): 88%
- percentage of patients with preservation of vision (decrease of less than three logMAR lines from Baseline) ([7]; 15 mg, Month 6, subgroup with predominantly classic CNV lesion): 92%
- mean change at Month 6 from Baseline in logMAR visual acuity, versus placebo ([7]; 15 mg, p=0.0032): statistically superior to placebo treatment
- LogMAR Change 1 Line Improved, % of patients [7, 11]: 12.1%
- LogMAR Change 1 Line Worsened, % of patients [7, 11]: 15.2%
- LogMAR Change 2 Lines Worsened, % of patients [7, 11]: 15.2%
- LogMAR Change No Change, % of patients [7, 11]: 30.3%
- LogMAR Change ≧2 Lines Improved, % of patients [7, 11]: 3%
- LogMAR Change ≧3 Lines Worsened (clinically significant vision loss), % of patients [7, 11]: 24.2%
- LogMAR Change ≧2 Lines Improved, % of patients ([7]; 30 mg single administration, n = 33, listed as Anec Acet): 3.0%
- <6 Lines Worse, % of patients ([7]; 30 mg, Month 6): 75.76%
- Severe Vision Loss, ≧6 Lines Worse, % of patients ([7]; 30 mg, Month 6): 24.24%
- mean change at Month 6 from Baseline in logMAR visual acuity, versus placebo ([7]; 30 mg, statistical significance not achieved): Trends also favor treatment
